Test results reported in patent US20220273752A1, “MODULATION OF DENDRITIC CELL FUNCTION BY THE PHOSPHOLIPID MESSENGER LPA” (Cornell University, priority 2019, published 2022).

What was measured:
[1] = test system: ID8-based ovarian cancer cells (Enpp2 sgRNA or control sgRNA); experiment: Host survival of mice bearing autotaxin-deficient (Enpp2 sgRNA) or control sgRNA ID8-based ovarian cancer; type: in vivo, mouse; details: for host survival in mice bearing autotaxin-deficient ovarian cancer: Enpp2 sgRNA tumors, compared with all other experimental groups
Description: FIG. 17A-17C illustrate host survival and disease progression in mice bearing autotaxin-deficient ovarian cancer (Enpp2 sgRNA) and treated with the TLR3 agonist Poly(1:C). FIG. 17A schematically illustrates the experimental scheme and treatment regimen. FIG. 17B graphically illustrates the survival of the indicated groups when treated as described in FIG. 17A. […] FIG. 17C graphically illustrates ascites accumulation over time of the groups of animals treated as described in FIG. 17A. ****P<0.0001.
FIG. 18A-18C illustrate that blockade of the type-I IFN receptor 1 (IFNAR1) abrogates the therapeutic effects Poly-(I:C) in mice bearing autotaxin-deficient ovarian tumors. FIG. 18A schematically illustrates the experimental scheme and treatment regimen employed. FIG. 18B graphically illustrates the percent survival for the groups described in FIG. 18A. […] FIG. 18C graphically illustrates ascites accumulation over time of the groups of animals treated as described in FIG. 18A. ***P<0.0005, ****P<0.0001.
FIG. 19A-19C illustrate the effects of the PARP inhibitor Talazoparib in mice bearing autotaxin-deficient ovarian cancer cells. FIG. 19A schematically illustrates the experimental scheme and treatment regimen employed. FIG. 19B graphically illustrates the percent survival for the groups described in FIG. 19A. […] FIG. 19C graphically illustrates ascites accumulation over time of the groups of animals treated as described in FIG. 19A. **P<0.001, ***P<0.0005, ****P<0.0001.
To define the in vivo relevance of the findings related to type-I IFN expression, the inventors abrogated the gene encoding the LPA-generating enzyme autotaxin (Enpp2) in ID8-based ovarian cancer cells lines using CRISPR-Cas9.
Based on these key findings, experiments were then performed to determine whether treatment with the TLR3 agonist Poly(I:C), which can enhance type-I IFN immune responses, could increase survival in mice bearing autotaxin-deficient ovarian tumors.
To determine whether these effects are really mediated by enhanced type-I IFN signaling, mice were treated with anti-IFNAR1 blocking antibodies. […]

PERK in murine DCs = experiment: PERK inhibitor in murine DCs in vitro (data not shown); type: cell-based
Description: (§1) The structure of AMG PERK 44 is shown below as a HCl salt.

[2] = test system: PERK in human monocyte-derived DCs; experiment: RT-qPCR gene expression in human monocyte-derived DCs treated with LPA and TM, with or without PERK inhibitor; type: cell-based; details: LPA 100 μM and TM 1 μg/ml, 6 hours; RT-qPCR relative to ACTB
Procedure: Monocyte-derived DCs were generated from peripheral human blood and cells were treated for 6 hours with LPA (100 μM), TM (1 μg/ml) or the combination of both, in the presence or absence of the PERK inhibitor AMG PERK 44. Gene expression was subsequently determined by RT-qPCR relative to endogenous ACTB in each sample. FIG. 6A graphically illustrates expression of the PERK-dependent ER stress response gene DDIT3 in monocyte-derived DCs with or without treatment by AMG PERK 44. FIG. 6B graphically illustrates expression of IL6 in monocyte-derived DCs with or without treatment by AMG PERK 44. FIG. 6C graphically illustrates expression of IL1B in monocyte-derived DCs with or without treatment by AMG PERK 44. FIG. 6D graphically illustrates expression of PTGS2 in monocyte-derived DCs with or without treatment by AMG PERK 44. FIG. 6E graphically illustrates expression of VEGFA in monocyte-derived DCs with or without treatment by AMG PERK 44.
as §1

[3] = test system: tumor-associated dendritic cells (tDCs); experiment: Ex vivo treatment of ovarian cancer ascites, gene expression in tumor-associated DCs; type: cell-based, mouse; details: ascites incubated ex vivo with 200 nM or 1000 nM, DCs isolated 24 h later; relative to Actb
Description: FIG. 7A-7B illustrate that conditional PERK deletion in CD11c^+ immune cells (Perk^f/f Cd11c-Cre) delays metastatic ovarian cancer progression. FIG. 7A illustrates survival of female mice of the indicated genotypes (n=8/group) that were intraperitoneally challenged with parental ID8 ovarian cancer cells and host survival was monitored over time. *P<0.05. ****P<0.0001. n=8/group. FIG. 7B graphically illustrates survival of female mice of the indicated genotypes (n=8/group) that were intraperitoneally challenged with variant ovarian cancer cells that are highly aggressive and overexpress VEGFA and Defb29 (ID8-Defb29/Vegf-A). Host survival was monitored over time. *P<0.05. ****P<0.0001. n=8/group. FIG. 8A-8D graphically illustrate expression of LPA/ER stress-induced tumorigenic and immunomodulatory genes by tumor-associated dendritic cells (tDCs) present in ovarian cancer ascites can be diminished using a small-molecule inhibitor targeting autotaxin.

[4] = test system: ovarian cancer cells that overexpress VEGFA and Defb29 (ID8-Defb29/Vegf-A); experiment: Anti-tumor efficacy (host survival) in mice bearing ID8-Defb29/Vegf-A ovarian cancer; type: in vivo, mouse; details: mice bearing metastatic ovarian cancer
Description: FIG. 9A is a schematic diagram illustrating the treatment of female mice that were intraperitoneally injected with ID8 ovarian cancer cells overexpressing VEGFA and Def29b. FIG. 9B graphically illustrates host survival as monitored over time of the mice treated as described for FIG. 9A. ***P<0.001. ****P<0.0001.
FIG. 20A schematically illustrates the experimental scheme and treatment regimen employed.
FIG. 20B graphically illustrates the percent survival for the groups described in FIG. 20A. […] FIG. 20C graphically illustrates ascites accumulation over time of the groups of animals treated as described in FIG. 20A. **P<0.001, ***P<0.001. ****P<0.0001.
Consequently, production of this bioactive lipid mediator limits the effects of immunotherapies such as Poly-(I:C) treatment, and of novel chemotherapeutic interventions such as PARP inhibitors. Targeting the autotaxin-LPA pathway may therefore be beneficial to control ovarian cancer progression and unleash protective anti-tumor immune responses that extend host survival. […] Therefore, our findings indicate that autotaxin inhibitors could be repurposed to maximize the efficacy of PARP inhibitors and awaken protective type-I IFN responses in ovarian cancer patients.
Methods similar to those described above were used to evaluate the anti-tumor effects of various autotaxin and LPA receptor inhibitors. The inhibitors were administered to mice that had received ovarian cancer cells that overexpress VEGFA and Defb29 (ID8-Defb29/Vegf-A).

Question: How did the “host survival in mice bearing autotaxin-deficient ovarian cancer” value [1] turn out when Poly(I:C) was run?
Answer: The value was “remarkable increase in survival”.

Question: And the “host survival, treatment alone” value ([1]; mice bearing control sgRNA ovarian cancer)?
Answer: Its value is “extended host survival”.

Question: With `Cc1ccc2cc(-c3c(C)ccc(C(=O)c4c(-c5ccccc5)n(C)n(-c5ccccc5)c4=O)c3N)ccc2n1` [AMG PERK 44] as the compound, how does the “effect compared with PERK deletion in murine DCs” value (PERK in murine DCs) read?
Answer: The value was “recapitulate the effects of PERK deletion”.

Question: And the “induction of pro-tumoral factors (IL6, IL1B, PTGS2, VEGFA) in LPA-exposed human DCs undergoing ER stress” value [2]?
Answer: The value was “prevents induction of pro-tumoral factors”.

Question: With `CCc1nc2c(C)cc(N3CCN(CC(=O)N4CC(O)C4)CC3)cn2c1N(C)c1nc(-c2ccc(F)cc2)c(C#N)s1` [GLPG1690] as the compound, how does the “expression of LPA/ER stress-induced Il1b, Il6, Ptgs2 and Vegf-α in tumor-associated DCs” value [3] read?
Answer: The value was “decreased the expression”.

Question: And the “host survival, single treatment” value ([4]; single agent)?
Answer: The value was “modestly extended host survival”.

Question: What about the “host survival, combined with Talazoparib” value ([4]; with PARP inhibitor Talazoparib (FIG. 20)) of the same compound?
Answer: The value was “significantly improved the therapeutic effects of Talazoparib”.

Question: And the “host survival, combined with chemotherapy” value ([4]; with chemotherapy (FIG. 9))?
Answer: The value was “significantly enhanced the effects of chemotherapy”.

Question: Which “host survival in mice bearing autotaxin-deficient ovarian cancer” value [1] does the source give for `Cn1ncnc1[C@H]1c2n[nH]c(=O)c3cc(F)cc(c23)N[C@@H]1c1ccc(F)cc1` [Talazoparib] here?
Answer: The value was “significant increase in host survival”.
